Results on 15 compounds are retold here after patent publication US11873290B2, “Pyridazinone compounds and uses thereof” (Edgewise Therapeutics, Inc., priority 2018, dated 2024).

The structures appear in SMILES notation. Bounds are passed on as bounds.

For one assay, the system named is zebrafish model of DMD.
Experiment: not given
The following applies: embryos from zebrafish model of DMD; cited from earlier work.
Regarding `Cc1ccc(S(=O)(=O)NCc2ccccc2)cc1` [BTS, N-benzyl-p-tolyl-sulfonamide], the “Protection from pathological muscle derangement” value was “protect muscles from pathological muscle derangement”.

A further assay concerns the target skeletal myofibrils (myosin ATPase activity). The experiment in a line: Skeletal Myofibril ATPase Assay. Type of assay: biochemical. The note with it: PK-LDH coupled, absorbance at 340 nm. A digest of the protocol:
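Skeletal myofibril ATPase measured by PK-LDH-coupled NADH depletion at 340 nm, read every 1.5–2 min for 1 h; pCa buffer with PIPES/CaCl2/EGTA, pH 7.0. Rate taken as max–min absorbance, normalised to 1% DMSO vehicle (100%) and no change (0%); IC50 from four-parameter fit, bottom ≥0.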
By IC50 is commonly meant the midpoint of a concentration-inhibition curve. Higher therefore signals lower potency. `COc1ccc(-c2ccc(=O)n(Cc3nc(-c4ccc(OC)cc4)no3)n2)cc1` [Compound 305, 6-(4-methoxyphenyl)-2-((3-(4-methoxyphenyl)-1,2,4-oxadiazol-5 yl)methyl)pyridazin-3(2H)-one] gave an IC50 of under 10 µM.

With `COc1ccc(-c2ccc(=O)n(Cc3nc(-c4ccccn4)no3)n2)cc1` [Compound 306, 6-(4-methoxyphenyl)-2-((3-(pyridin-2-yl)-1,2,4-oxadiazol-5-yl)methyl)pyridazin-3(2H)-one], the IC50 lay within 10 to 100 µM.

Consider `COc1ccc(-c2ccc(=O)n(Cc3cc(=O)n4ccccc4n3)n2)cc1` [Compound 307, 2-((3-(4-methoxyphenyl)-6-oxopyridazin-1(6H)-yl)methyl)-4H-pyrido[1.2-a]pyrimidin-4-one], for which the IC50 lay within 10 to 100 µM.

The compound `CCOc1ccc(-c2ccc(=O)n(Cc3nc(-c4cccs4)no3)n2)cc1` [Compound 308, 6-(4-ethoxyphenyl)-2-((3-(thiophen-2-yl)-1,2,4-oxadiazol-5-yl)methyl)pyridazin-3(2H)-one] came in with an IC50 of under 10 µM.

`COc1ccc(-c2ccc(=O)n(Cc3nc(-c4ccccc4)no3)n2)cc1` [Compound 309, 6-(4-methoxyphenyl)-2-((3-phenyl-1,2,4-oxadiazol-5-yl)methyl)pyridazin-3(2H)-one] returned an IC50 of under 10 µM.

Compound `COc1ccc(-c2ccc(=O)n(Cc3nc(-c4ccc(OC)cc4)no3)n2)cc1` [Compound 310, 6-(4-methoxyphenyl)-2-((3-(4-methoxyphenyl)-1,2,4-oxadiazol-5-yl)methyl)pyridazin-3(2H)-one] came in with an IC50 of under 10 µM.

With `Cc1ccc(-c2ccc(=O)n(Cc3cc(=O)n4ccccc4n3)n2)cc1` [Compound 311, 2-((6-oxo-3-(p-tolyl)pyridazin-1(6H)-yl)methyl)-4H-pyrido[1,2-a]pyrimidin-4-one], the IC50 lay in the range of 10 to 100 µM.

In the case of `Cc1ccc(-c2ccc(=O)n(Cc3nc(-c4ccccc4C)no3)n2)cc1` [Compound 312, 6-(p-tolyl)-2-((3-(o-tolyl)-1,2,4-oxadiaxol-5-yl)methyl)pyridazin-3(2H)-one], the IC50 is under 10 µM.

`Cc1ccc(-c2noc(Cn3nc(-c4ccc(Cl)cc4)ccc3=O)n2)cc1` [Compound 313, 6-(4-chlorophenyl)-2-((3-(p-tolyl)-1,2,4-oxadiazol-5-yl)methyl)pyridazin-3(2H)-one] had a concentration for half-maximal inhibition (IC50) of 10 to 100 µM.

`Cc1ccc(-c2ccc(=O)n(Cc3nc(-c4cccc(Cl)c4)no3)n2)cc1` [Compound 314, 2-((3-(3-chlorophenyl)-1,2,4-oxadiazol-5-yl)methyl)-6-(p-tolyl)pyridazin-3(2H)-one]: the IC50 is over 100 µM.

`COc1ccc(-c2ccc(=O)n(Cc3nc(-c4ccc(OC)cc4)no3)n2)cc1` [Compound 315, 6-(4-methoxyphenyl)-2-((3-(4-methoxyphenyl)-1,2,4-oxadiazol-5-yl)methyl)pyridazin-3(2H)-one] returned an IC50 of under 10 µM.

As for `Cc1nc(Cn2nc(-c3ccc(Cl)cc3)ccc2=O)no1` [Compound 350, 6-(4-chlorophenyl)-2-((5-methyl-1,2,4-oxadiazol-3-yl)methyl)pyridazin-3(2H)-one], the 50% inhibitory concentration (IC50) was over 100 µM.

On to `Cc1ncc(-c2ccc(=O)n(Cc3cncc(F)c3)n2)cn1` [Compound 351], for which the half-inhibitory concentration (IC50) is 10 to 100 µM.

Consider `C/C=C\c1ncc(-c2ccc(=O)n(Cc3cncc(F)c3)n2)cn1` [Compound 352, (Z)-2-((5-fluoropyridin-3-yl)methyl)-6-(2-(prop-1-en-1-yl)pyrimidin-5-yl)pyridazin-3(2H)-one], for which the IC50 is under 10 µM.
